How the values were obtained:
[1] = test system: primary human aortic smooth muscle cells (HASMCs); experiment: Immunoblot of p-Smad2 and SM-calponin in control and FRS2α knockdown HASMCs treated with SB431542; type: cell-based; conditions: SB431542 10 μM
Source text: FIGS. 2A-2F are images and plots showing that FRS2α knockdown increases smooth muscle marker gene expression via the TGFβ pathway in primary human aortic smooth muscle cells (HASMCs). […] Blots are representative of four independent experiments. […] R-actin was used for sample loading normalization. […] FIGS. 2D-2F show immunoblots of smooth muscle markers, phosphorylated Smad2 (p-Smad2), and TGFβR1 expression in control and FRS2α knockdown HASMCs treated with SB431542 ([…]), TGFβR2 or Smad2 shRNA lentiviruses. Blots are representative of three independent experiments.
The TGFβR1 kinase inhibitor SB431542 (Sigma S4317) was reconstituted in DMSO (Sigma D2650) and used at a final concentration of 10 μM in cell culture.
Mouse Tgfbr1 and Tgfbr2 shRNA lentiviral constructs were purchased from Sigma. Human FGFR1, human Smad2 and human TGFβR2 shRNA lentiviral constructs were purchased from Sigma and human FRS2α shRNA lentiviral construct was purchased from Open Biosystems. For the production of shRNA lentivirus, 3.7 μg of A8.2, 0.2 μg of VSVG, and 2.1 μg of pLKO.1 carrying the control, FGFR1, FRS2α, Smad2, or TGFβR2 shRNA were co-transfected into 293T cells using X-tremeGENE 9 DNA Transfection Reagent (Roche 06365787001). Forty-eight hours later the medium was harvested, cleared by 0.45 μm filter (PALL Life Sciences PN4184), mixed with polybrene (5 μg/ml) (Sigma H9268), and applied to cells. […]

Apoe^−/− mice = experiment: Oil Red O atherosclerotic lesion area after 7C1-siTgfbr and/or rapamycin, 4 months of high fat diet; type: in vivo, mouse
Source text: FIGS. 45A-45B are a graph and a series of images showing that 7C1-siTgfbr and rapamycin suppress atherosclerosis lesion development in Apoe^−/− mice after 4 months of high fat diet. FIG. 45A: Time frame of 7C1-siTgfbr1/Tgfbr2 lipid nanoparticle and rapamycin injections. FIG. 45B: Representative photomicrographs of Oil Red O-stained atherosclerotic lesions in PBS, 7C1-siLuciferase, DMSO, Rapamycin, or 7C1-siTgfbr treated mice.
FIG. 46 is a histogram illustrating the quantification of atherosclerotic lesions from FIG. 45B. Lesion area quantification. % Lesion area is the lesion area/total area of aorta. All data shown as mean±SD. (***p<0.001; one-way ANOVA with Newman-Keuls post hoc test for multiple comparison correction).
Apoe^−/− and Frs2^SMCKO/Apoe^−/− male mice were fed a Western diet (40% kcal % Fat, 1.25% Cholesterol, 0% Cholic Acid) for 8 or 16 weeks (Research Diets, product #D12108) starting at the age of 8 weeks. After 8 or 16 weeks of being fed a high-fat diet, mice were anesthetized and euthanized. […] The lesions located in the aorta, aortic roots and abdominal aorta were analyzed using Oil Red 0 staining. […] The surface lesion area was quantified with ImageJ software (NIH). […]
FIG. 46 is a histogram illustrating the quantification of atherosclerotic lesions from FIG. 45B. […]

[2] = test system: Apoe^−/− and Frs2α^iECKO/Apoe^−/− mice; experiment: Tolerability of 7C1-let-7 injections: body weight, blood counts, serum lipids, organs, liver function, skin; type: in vivo, mouse; conditions: after 16 weeks on high cholesterol diet
Source text: FIGS. 24A-24E are a series of graphs showing that 7C1-let-7 mimics treatment have no effect on mouse body weight and serum lipid profile. FIG. 24A: Time frame of gene inactivation and 7C1 lipid nanoparticle injections. FIG. 24B: Serum triglycerides, total cholesterol, and HDL-C levels from Apoe^−/− and Frs2^iECKO/Apoe^−/− mice after 16 weeks on a high cholesterol diet (NS: not significant by one-way ANOVA with Newman-Keuls post-hoc test). FIG. 24C: Individual body weights in each group were measured every week. FIGS. 24D-24E: qPCR analysis of let-7b and Tgfbr1 expression in lung endothelial cells after treatment with 7C1-let-7 particles. All data shown as mean±s.d. (*p<0.05; **p<0.01; ***p<0.001 compared with Luciferase; one-way ANOVA with Newman-Keuls post hoc test for multiple comparison correction). N=4-6 mice per group.
Serum was obtained through centrifugation of the blood for 2 min at 10,000 rpm at 4° C. and stored at −80° C. until each assay was performed. […]
A decline in let-7 miRs expression has been previously linked to activation of TGFβ signaling (Chen et al., 2012, Cell reports 2: 1684-1696; Chen et al, 2014 Science signaling 7, ra90). […] Measurements of the following were taken from mice in each group: body weight, complete blood counts, skin pictures, serum lipid profiles, organ weight, and whole aorta oil red-O staining and quantification (FIGS. 24C, 25, 23, 24B, 27, and 29).

Compound: NC(=O)c1ccc(-c2nc(-c3ccc4c(c3)OCO4)c(-c3ccccn3)[nH]2)cc1 [SB431542]
- FRS2α knockdown-induced increase in SM-calponin levels [1]: effectively attenuated
- FRS2α knockdown-induced increase in p-Smad2 levels [1]: effectively attenuated

Compound: CO[C@H]1C[C@@H]2CC[C@@H](C)[C@@](O)(O2)C(=O)C(=O)N2CCCC[C@H]2C(=O)O[C@H]([C@H](C)C[C@@H]2CC[C@@H](O)[C@H](OC)C2)CC(=O)[C@H](C)/C=C(\C)[C@@H](O)[C@@H](OC)C(=O)[C@H](C)C[C@H](C)/C=C/C=C/C=C/1C [rapamycin]
- reduction in atherosclerotic lesion (% lesion area = lesion area/total area of aorta) (Apoe^−/− mice): 58%

Compound: mi-let-7bH: heavily 2′-O-methyl modified double stranded let-7b miRNA mimic, 5p UGAGGuAGuAGGUUGUGUGGUU, 3p cuAuAcAAccuAcuGccuuccc
- serum triglycerides, total cholesterol and HDL cholesterol levels (serum lipid profile) [2]: similar

Compound: mi-let-7bL: lightly 2′-O-methyl modified double stranded let-7b miRNA mimic, 5p UGAGGuAGuAGGUUGUGUGGUU, 3p CuAuAcAACCuACUGCCUUCCC
- serum triglycerides, total cholesterol and HDL cholesterol levels (serum lipid profile) [2]: similar

— patent US11326167B2, “Methods and compositions for treating atherosclerosis” (YALE UNIVERSITY, priority 2016, dated 2022)
